# Laboratory results reported in patent US9682928B2 (NeuroPro Therapeutics, Inc., priority 2009, dated 2017).
# Entries after “also recorded” stand apart in the source; their conditions may differ.
# Experiments:
# male Sprague Dawley rats = assay: Taxol-induced peripheral neuropathy (rat), mechanical allodynia (von Frey); assay type: in vivo; details: gabapentin 100 mg/kg
# Source text: In this study, an animal model of Taxol-induced sensory neuropathy was employed to evaluate the effects of the sponsor's test compounds, for response to tactile sensitivity using von Frey test of mechanical allodynia. […] Therefore, Taxol-induced mechanical allodynia was employed as the measured behavioral endpoint.
# The test substance was homogenized and dispersed using a mortar and a pestle in 0.2% hydroxypropylmethylcellulose (HPMC) in physiological saline, which served as the vehicle. Test articles were administered intraperitoneally in dose volumes of 10 mL/kg body weight. Preparations were made freshly for each day of administration.
# Prior to test article NTP-2024 and vehicle control group administration, rats were pretreated at 30 minutes and again at 10 minutes prior to test article administration with a general metabolic inhibitor, piperonyl butoxide (150 mg/kg i.p.) in DMSO, at a volume of 1 mL/kg.
# The reference article, Gabapentin, was formulated in saline to a concentration of 100 mg/mL and delivered […] at a dose volume of 1 mL/kg body weight (for a dosing concentration of 100 mg/kg).
# All animals were administered Taxol, 2 mg/kg, IP at a dose volume of 1 mL/kg, on Days 1, 3, 5 and 7.
# On Day 32, all animals received a single intraperitoneal injection of test article or vehicle according to Tables 1 and 2. For group 1 (vehicle), rats were pre-treated with Piperonyl butoxide (150 mg/kg IP, dose volume of 1 mL/kg) at 30 minutes and again at 10 minutes prior to vehicle administration. Four animals in group 3 (NTP-2024) were also pre-treated with Piperonyl butoxide (150 mg/kg IP, dose volume of 1 mL/kg) at 30 minutes and again at 10 minutes prior to vehicle administration. Animals in Groups 2, 3, 4, & 5 were pre-treated with Saline (dose volume of 1 mL/kg, IP) at 30 minutes and again at 10 minutes prior to test article administration. With the exception of animals in group 2, the animals received an IP injection of vehicle or test article 30 min prior to mechanical allodynia testing. Animals were dosed at a volume of 10 mL/kg.
# Animals in group 2, received an IP injection of Gabapentin 90 minutes prior to mechanical allodynia testing. Animals were dosed at a volume of 1 mL/kg.
# All animals underwent von Frey testing for mechanical allodynia. On testing days, the animals were returned to the chambers and allowed approximately 15 minutes to explore their surroundings prior to testing. A series of filaments were applied to the left hind paw. A 2.0 g filament was first applied to the plantar surface, if the animal responded to the filament (by lifting its paw) then the next smaller filament was applied. […] This is repeated in an “Up down” method for four responses after the first initial change in response.
# The original study design used thermal hyperalgesia as the main parameter for testing the ability of the test compounds to ameliorate the pain associated with the Taxol injection. The treatment inclusion was set at a 20% drop from baseline values as determined on Day 28. […] The study design was amended to use mechanical allodynia as the testing parameter. […] This changed the testing days from Day 28 to Day 31 for allodynia confirmation and Day 29 to Day 32 for testing the article efficacy. Additional animals were received to complete the group size designation. These animals were tested for mechanical allodynia only. The study was then further amended to remove the piperonyl butoxide as a pre-treatment for Group 3 (NTP-2024). […] Because this study was conducted in two portions, four (4) animals from Group 3 received the metabolic inhibitor and five (5) received Saline as a pre-treatment.
# The group mean results were analyzed versus the vehicle control group using a two way ANOVA, followed by a Bonferroni post-hoc test. Individual groups were tested pre and post dose using a paired t-test.
# Male Rj: NMRI mice = assay: Formalin paw test (late phase) in the mouse; assay type: in vivo
# Method: The method described herein detects analgesic/anti-inflammatory activity, generally used to test compounds for pain relief, in particular diabetic neuropathy or nociceptive neuropathy. See Wheeler-Aceto, et al. (1991) Psychopharmacology 104: 35-44.
# Mice were given an intraplantar injection of 5% formalin (25 μl) into the posterior left paw. This treatment induces paw licking in control animals. Mice were briefly observed at 1 minute intervals between 15 and 50 minutes after the injection of formalin and the number of occasions that the mice were observed licking the injected paw was recorded. There were 10 mice per group and the test was performed “blind.”
# The experiment included 11 groups. Data was analyzed by comparing treated groups with vehicle control using unpaired Mann-Whitney U tests.
# Gabapentin (100 mg/kg i.p.) administered under the same experimental conditions, was used as reference substance. The experiment included several groups. Data was analyzed by comparing treated groups with vehicle control using unpaired Mann-Whitney U tests.
# Male CD-1 mice [1] = assay: Chung (SNL) neuropathic pain study in mice; assay type: in vivo, mouse; details: mice, i.p., SNL
# Source text: Male CD-1 mice (25-35 g, Charles River) were used for all studies. Mice were housed in groups of five in Plexiglas chambers with food and water available ad libitum. All animals were maintained on a 12 hr light/dark cycle (lights on at 7:00 AM) in a temperature- and humidity-controlled animal colony. The health status of the animals used in this study was examined on arrival. Only animals in good health were acclimatized to laboratory conditions and used in the study. The acclimation period to the vivarium was a minimum of 7 days. All animal experiments were performed under an approved protocol in accordance with institutional guidelines and in accordance with the Guide for the Care and Use of Laboratory Animals as adopted and promulgated by the National Institutes of Health.
# NTP has provided adequate amounts of NTP-2014 and NTP-2026 along with detailed instructions for preparing injection solutions. Gabapentin (Gallipot, St. Paul, Minn.) was dissolved in physiological saline. Injections were made using a 1-mL syringe with a 30-gauge needle at a volume of 10 ml/kg body weight. Animal body weights were measured prior to surgery and then on the morning of Day 7 (post-SNL testing). For i.p. drug administration, each mouse was firmly grasped by the nape of the neck and the tail was tucked between the last two fingers and palm of the technician's hand. The back of the mouse iwasarched slightly backwards exposing the abdominal region. The needle was inserted through the skin and abdominal musculature into the peritoneal cavity just off of the midline. Mice are immediately returned to the testing cage until behavioral testing.
# NTP2026 (56, 100 and 180 mg/kg, i.p.); NTP 2014 (32, 56 and 100 mg/kg, i.p.); Gabapentin (100 mg/kg, i.p.); Vehicle Control (10% TPGS in benzoate buffer, i.p.).
# SNL surgeries were performed based on the procedures described for rats (Kim and Chung, 1992) and modified for mice (Wang et al., 2001). Anesthesia was maintained with 0.5% halothane in O2 and body temperature was maintained using a heated water blanket. After surgical preparation of the mice, a 1-cm paraspinal incision was made at the level L4-S2. The L5 and L6 spinal nerves were exposed and tightly ligated using a 4-0 silk suture. The ligation was made distal to the dorsal root ganglion but before the fibers joined the sciatic nerve. The incisions were then closed, and animals are allowed to recover. […] Mechanical thresholds were determined by measuring the paw withdrawal threshold to probing with a series of calibrated von Frey filaments as described below.
# Non-noxious sensory thresholds of the mice were determined by paw withdrawal […] to probing with a series of calibrated (0.02-2.34 gm on a logarithmic scale) von Frey filaments (“up and down” method) according to Chaplan et al. (1994) and analyzed using a Dixon (1980) nonparametric test. Results are expressed as the mean withdrawal thresholds. Baseline latencies/thresholds were determined prior to surgery, on the morning of Day 7, and then between 20-60 minutes post dosing with the test drugs. The post-drug time corresponds to the time of maximal activity for these compounds in the tail-flick assay.
# Male CD-1 mice [2] = assay: Chung (SNL) neuropathic pain study in mice; assay type: in vivo, mouse; details: high dose group (180 mg/kg NTP-2014; 100 mg/kg NTP-2026; gabapentin 100 mg/kg, i.p.)
smiles,measurement,setting,value
"NCC1(CC(=O)O)CCCCC1 [Gabapentin, reference compound]",Reversal of mechanical allodynia,male Sprague Dawley rats,able to mitigate the mechanical allodynia; also recorded: significantly reverse
same,Licking Score % Pain Decrease,Male Rj: NMRI mice; gabapentin 100 mg/kg (584 μmol/kg),63%
same,Licking Score (15 to 50 minutes post-formalin injection) % Change from Control,Male Rj: NMRI mice; gabapentin 100 mg/kg i.p. (584 μmol/kg),−63%
same,Reversal of tactile hypersensitivity,Male CD-1 mice [1],dose-dependent activity
same,Sedation,Male CD-1 mice [2],minor sedation and incoordination
